Laboratory results reported in patent publication US10864273B2, “Thiobase compounds for photodynamic therapy” (CASE WESTERN RESERVE UNIVERSITY, priority 2015, dated 2020).
Like-named read-outs stand apart in the source and are kept apart here.

Columns and labels:
[1] = Singlet oxygen quantum yield by phosphorescence at 1270 nm, thiothymine series; format: physicochemical; conditions: for ΦΔ singlet oxygen quantum yield: O2-saturated acetonitrile solution, 355 nm excitation, phenalenone standard
Experimental: Singlet oxygen phosphorescence measurements were performed using a modified Fluorolog-3 spectrometer (HORIBA, Jobin Yvon) in conjunction with a NIR sensitive photomultiplier tube (H10330A-45, Hamamatsu). A 450 W Xe lamp was used for steady state excitation to record singlet oxygen phosphorescence spectra and a Spectra Physics GCR-150-30 Nd:YAG laser (355 nm, 7 ns pulse width) was used for pulsed excitation to collect singlet oxygen phosphorescence decay traces at 1270 nm, which were stored on a digital oscilloscope (TDS 360, Tektronics).
O2-saturated acetonitrile solutions of the thiobases and standard (phenalenone) with matching absorbance at 355 nm (O.D.=0.3 at 1 cm optical path length) were prepared. The measurements were performed in a 1×1 cm quartz cell. Singlet oxygen quantum yields were determined from the phosphorescence intensity at 1270 nm at the end of the laser pulse using phenalenone as standard (ΦΔ=0.98).
While ultrafast internal conversion to the ground state and the low triplet yield in thymidine provide the nucleobase with its high degree of photostability, the near-unity triplet yields in the thiothymine series account for their potent photo-sensitization properties. We have obtained evidence for significant photoreactivity of these triplet states by performing time-resolved energy transfer experiments to molecular oxygen, thus generating singlet oxygen, as monitored by its characteristic phosphorescence at 1270 nm (FIG. 3 and FIG. 4). The singlet oxygen quantum yields for 4tThd and 2,4dtThy were determined using phenalenone as a standard (ΦΔ=0.98) and are summarized in Table 1. It should be remarked that quantification of the singlet oxygen yield is one of the primary methods used to determine the efficacy of a prospective photosensitizer for phototherapeutic applications. To our knowledge, this is the first work to report the singlet oxygen yield of 2,4dtThy. […] Consistent with the spectroscopic analysis herein, the singlet oxygen yield of 2tThy is smaller than those of 4tThd and 2,4dtThy.

[2] = Femtosecond broadband transient absorption spectroscopy of the thiothymine series (intersystem crossing, triplet yield); format: physicochemical; conditions: for τISC intersystem crossing lifetime: probe 600 nm
Experimental: Femtosecond transient absorption spectroscopy was performed using a Ti— Sapphire regenerative amplifier laser system (Libra-HE, Coherent, Inc.; 800 nm, 100 fs, 4.0 W at 1 kHz). 2.6 W of the 800 nm beam were used to pump an optical parametric amplifier (TOPAS, Quantronix/Light Conversion) to generate the excitation beam at selected wavelengths of 320, 335, and 360 nm. Contributions to the excitation beam from other wavelengths and polarizations were removed by a reflective wavelength filter (λ-filter) and a Glan-Taylor polarizer, respectively, and the polarization was randomized using a depolarizing plate in order to prevent rotational effects from contributing to the dynamics, as described in details elsewhere.
A Helios spectrometer (Ultrafast Systems, LLC.) was used for pump-probe measurements. A fraction of the fundamental (800 nm) beam from the Libra-HE was used to generate white light continuum (WLC). The Helios spectrometer uses an optical delay line with a maximum delay of ˜3 ns for the 800 nm beam, which was used to pump a continuously-moving 2 mm CaF2 plate for generation of the WLC broadband probe pulse covering the spectral range from ˜320-700 nm. The probe light was then passed through a 730 nm low-pass dichroic optical filter, so as to block residual fundamental beam and to avoid saturating the complementary metal-oxide-semiconductor (CMOS) detectors. The probe pulse was then split into two beams, both of which were recollimated and focused into the optical fibers leading to their respective CMOS detectors. In this setup, one of the beams serves as reference, while the other is used to probe the sample of interest. A synchronized chopper wheel was used to block every other pump pulse, such that the difference in absorption between two consecutive measurements gives the transient spectrum. The excitation beam was attenuated to 1 μJ/pulse at the sample using a neutral density optical filter before entering the spectrometer. The excitation pulse was focused to a beam diameter three times larger than that of the probe beam at the sample position. Detection time windows of 20 and 200 ps were used in this work.
All solutions were prepared using pH 7.4 aqueous phosphate buffer, with a total phosphate concentration of 16 mM. The solution was continuously stirred in a 2 mm optical path length quartz cell (Starna Cells, Inc.) using a Teflon-coated magnetic stirring bar so as to bring fresh sample to the pump-probe region for each measurement. The solution in the cuvette was replaced with a fresh sample, from the same stock solution, every 5-7 scans, so that all scans had no more than 5% decrease in absorbance at the lowest-energy absorption-band maximum as determined by steady-state absorption spectroscopy.
All broadband transient absorption data were corrected for group velocity dispersion (GVD) of the WLC using a home-made LabView program (National Instruments, Inc.) as previously described. 3 Analysis of transient absorption kinetics was performed in Igor Pro 6.32A (WaveMetrics, Inc.) using the target analysis method, as described previously, and a sequential kinetic model convoluted with an instrument response function of ˜200 fs (FWHM). The instrument response was determined from the coherence signal of neat methanol generated at the sample cell. Global fitting analysis was performed using 15 to 30 representative kinetic traces covering the full range of probe wavelengths. At least three independent datasets (i.e., recorded on three different days) were used in the analysis and all uncertainties are reported as twice the standard deviation of the average lifetime. Decay associated spectra shown in FIG. 7A were extracted from the global fitting analysis of the transient decay traces taken every third probe wavelength across the entire WLC range.

[3] = Estimated maximum UVA treatment depth in tissue from absorption cutoff and penetration depth curve; conditions: cutoff ε=1000 M^−1 cm^−1
From the text: Longer wavelengths of light are able to penetrate deeper into tissues due to less scattering and reduced absorption by natural biomolecules (FIG. 5). Therefore, the redshifted absorption of 2,4dtThy as compared to 4tThd opens up the possibility for it to be effectively used as a photosensitizer in deeper tissue UVA-activated therapies. The maximum treatment depth for these two compounds was estimated by defining an arbitrary absorption cutoff of ε=1000 M^−1 cm^−1 (i.e., 371 nm for 4tThd and 395 nm for 2,4dtThy; FIG. 5). […] In order to account for this, the area under the penetration depth curve (FIG. 5) was integrated up to the respective absorption cutoff for each compound. Using this integration method the total increase in treatment depth of 2,4dtThy relative to 4tThd was determined to be about 67%. This increase likely serves as an upper bound limit for the actual relative increase because the molar absorptivity coefficients of the compounds will no doubt play a role. However, because the absorption of radiation at a given wavelength is not only dependent on a photosensitizer's molar absorptivity coefficients but also on its concentration in the tissue, our best estimation is that 2,4dtThy could facilitate UVA-activated treatment in tissues 23 to 67% deeper than those that can be effectively treated by 4tThd.

[4] = Steady-state absorption spectroscopy, thymine series; format: physicochemical; conditions: phosphate buffer solution at pH 7.4
From the text: 2-thiothymine (2tThy, 98% purity) was obtained from AK Scientific, 4-thiothymidine (4tThd, 99% purity) was obtained from Carbosynth Ltd., and 2-thiothymidine (2tThd) and 2,4-dithiothymine (2,4dtThy) were obtained from Sigma Aldrich. All compounds were used as received. The purity of these compounds was ensured by using fluorescence spectroscopy and by comparison with the published absorption maxima and their corresponding extinction coefficients. Phosphate buffer solutions were freshly prepared using 0.12 g of sodium dihydrogen phosphate and 0.089 g of disodium hydrogen phosphate dissolved in 100 mL of ultrapure water and adjusted to pH 7.4 using a 2 M NaOH solution. Steady-state absorption spectra were measured using a Cary 100 Bio spectrometer. All absorption spectra were corrected for the solvent background by subtraction of the absorption of the solvent.
Specifically, sulfur substitution of the C2 carbonyl in thymine results in about a 10 nm redshift in the absorption maximum, whereas substitution at the C4 position results in a redshift of about 70 nm. Remarkably, double-substitution results in about a 100 nm redshift of the lowest-energy absorption band of thymidine (ΔE=9905 cm^−1), without an appreciable change in the magnitude of the extinction coefficient at the corresponding wavelengths (1×10^4 M^−1 cm^−1). Replacement of an oxygen atom by a sulfur atom in a carbonyl bond is expected to shift the absorption spectrum to the red because the thiocarbonyl is weaker than the carbonyl bond and the excited electronic states in thiocarbonyl compounds are typically found at lower energies. However, the difference in bond strengths between a carbonyl and thiocarbonyl bond cannot solely explain the large spectral shift observed between 2tThy/2tThd and 4tThd. Furthermore, the redshift in the absorption spectrum of 2,4dtThy cannot simply be expressed as a linear combination of the absorption spectra of the 2tThy/2tThd and 4tThd derivatives. […] Glycosylation of 2tThy, generating 2tThd, results in a 2 nm redshift in the absorption maximum and about 2-fold increase in the molar absorptivity coefficients (FIG. 1B). The same effect has been previously documented in the natural bases and in other thiobases. Therefore, glycosylation of 2,4dtThy to form 2,4-dithiothymidine is expected to redshift the absorption spectrum slightly and to increase the molar absorptivity coefficients.

[5] = system: bladder cancer; conditions: in conjunction with a low dose of UVA radiation; animal models; cited from earlier work
[6] = cited from earlier work
[7] = system: 3D human skin models; conditions: in conjunction with a low dose of UVA radiation; lower epidermis of 3D human skin models; cited from earlier work
[8] = pH 7.4 phosphate buffer solution; previously reported values; cited from earlier work
[9] = system: cancerous cell lines; conditions: in conjunction with a low dose of UVA radiation; in vitro; cited from earlier work
[10] = O2-saturated acetonitrile; literature / standard value; cited from earlier work
[11] = O2-saturated acetonitrile solution; previously measured / standard value; cited from earlier work
[12] = pH 7.4 phosphate buffer solution

| triplet yield [2] | ΦT triplet quantum yield [2, 12] | wavelength at arbitrary absorption cutoff [3] [nm] | maximum of lowest-energy absorption band [4] [nm] | ε at maximum of lowest-energy absorption band [4] | Compound | 1O2 yield lower than that of the corresponding thiouracil derivative [1] [%] | singlet oxygen yield [1] [%] | ΦΔ singlet oxygen quantum yield [1] | increase in rate of intersystem crossing going from 2-thiothymine [2] [fold] | intersystem crossing rate increase relative to Thd [2] [fold] | τISC intersystem crossing lifetime [2, 12] [fs] | treatment of bladder cancer [5] | triplet-triplet extinction coefficient ([6]; at 520 nm, previously reported, own determination in agreement) [M⁻¹ cm⁻¹] | reported triplet yield of the reference compound ([6]; reference for relative actinometry) | induction of cytotoxic lesions [7] | ΦT triplet quantum yield [8] | killing of cancerous cell lines [9] | ΦΔ singlet oxygen quantum yield [10] | ΦΔ singlet oxygen quantum yield [11] |
| --- | --- | --- | --- | --- | --- | --- | --- | --- | --- | --- | --- | --- | --- | --- | --- | --- | --- | --- | --- |
| approximately 90% | >0.9 | 395 | 363 | ≈ 9.7×10^3 M^−1 cm^−1 | Cc1c[nH]c(=S)[nH]c1=S [2,4dtThy, 2,4-dithiothymine] | 6 | ~50 | 0.46 ± 0.02 | 3.5 | 4.2 | 180±40 |  |  |  |  |  |  |  |  |
|  |  | 371 |  |  | Cc1cn([C@H]2C[C@H](O)[C@@H](CO)O2)c(=O)[nH]c1=S [4tThd, 4-thiothymidine] | 14 |  | 0.42 ± 0.02 |  | 3.2 | 240 ± 20 | treat bladder cancer in animal models | 2500 ± 700 | 1.0±0.1 | induce cytotoxic lesions in the lower epidermis of 3D human skin models | 0.85 ± 0.15 | effectively kill cancerous cell lines in vitro |  |  |
|  |  |  |  |  | O=C1C=Cc2cccc3cccc1c23 [phenalenone] |  |  |  |  |  |  |  |  |  |  |  |  | 0.98 | 0.98 |
